From patent US20230293504A1, “TARGETING SUCNR1 TO REDUCE NEUROINFLAMMATION” (New York University, priority 2022, published 2023)

What was measured:
[1] = mice; succinate IP daily (4 mM/kg) for 4 weeks vs PBS
Procedure: FIG. 3. […] Mice received daily intraperitoneal (IP) injection with PBS or Succinate (4 mM/kg) for 4 weeks before sample collection. […] B. Alpha Diversity measured by the Observed number of ASVs, and Phylogenetic diversity index for oral swab samples. C. […] D. Network plot generated in Cytoscape 3.8.2. The small gray dots represent ASVs, the white circles represent WT samples, the yellow triangles represent WT_Suc samples. Edges represent the interaction of sample and ASV are colored based on sample type.

[2] = test system: Fusobacterium nucleatum
Procedure: FIG. 5. Fusobacterium nucleatum growth and virulence gene expression. A. F. nucleatum growth in media supplemented with indicated succinate concentrations shown as optical density measures over time (n=3, SEM). Different letters indicate statistically different from one another (ANOVA, p<0.05 by post-hoc Tukey's). B Relative expressions of virulence genes of F. nuleactum in 100 uM of succinate as determine by RT-PCR. (mean±SEM. ** p<0.01, * p<0.05).

[3] = target: T1, SUCNR1 (Mus musculus, UniProt Q99MT6); assay: Ligature plus F. nucleatum induced periodontitis in mice, topical 7a gel formulation (FIG. 11); assay type: in vivo
T1 construct: endogenous in cells; host or cells: live mice; C57/B6 is stated for the periodontitis model, and no strain is stated for the LPS model
T1 sequence (Q99MT6 1-317): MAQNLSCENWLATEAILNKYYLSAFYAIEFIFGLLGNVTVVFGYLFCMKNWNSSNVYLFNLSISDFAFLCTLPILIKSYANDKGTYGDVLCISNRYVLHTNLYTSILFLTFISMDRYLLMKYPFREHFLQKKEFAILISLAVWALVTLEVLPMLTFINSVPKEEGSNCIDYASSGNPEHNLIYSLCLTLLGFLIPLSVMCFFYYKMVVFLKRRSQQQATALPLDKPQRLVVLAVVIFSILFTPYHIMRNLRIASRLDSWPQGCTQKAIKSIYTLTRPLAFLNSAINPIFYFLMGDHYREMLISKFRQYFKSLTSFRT
Procedure: FIG. 11. Targeting SUCNR1 suppressed periodontitis and neuroinflammation. A. Study design. Periodontitis was induced in 14-week-old mice with a 6-0 silk ligature (Roboz Surgical Instrument Co., MD, USA) around the maxillary right side second molar. The ligature were kept in place for 5 days before removal. Sterile swabs soaked in 100 μl of 2.5×10^9/ml F. nucleatum in PBS and inoculated into mice around the ligature affected gingival tissues for 30 seconds. Inoculations were performed twice a week for four weeks. Mice were randomly assigned to receive 3 μl vehicle or 7a gel formulation every other day by topical application. B. Representative μCT images; C. The distance between CEJ to alveolar bone crest. D. IL-1β mRNA levels in the gingivae around the ligature site. E. Serum IL-1β levels. *p<0.05, ** p<0.01, *** p<0.001).
A novel mechanism connecting chronic peripheral inflammation and neuroinflammation. […] Inflammation was induced in 14-week-old C57/B6 mice by placing a ligature on the 2nd maxillary molar for 5-days plus twice/week inoculations of a key periodontal pathogen Fusobacteria nucleatum (Fn) for 4-weeks (FIG. 1A). […] This local inflammation was accompanied with the induction of neuroinflammation evidenced by the activation of microglia (FIG. 1D) and increased IL1β levels in hippocampus, cortex and cerebellum (FIG. 1E-G).
Six in situ gel formulations (ISGs) were produced by varying polymer concentration, changing the hydrophobicity of the solvent system, and use of different plasticizers (such as PEG200). All these ISGs were analyzed by FT-IR/ATR and HPLC assay for drug-polymer compatibility. In vitro drug release experiments were performed to assess the profile of sustained release with controlled initial burst release. One gel formulation was chosen to treat periodontitis animals in-vivo at 1 μg/10 g body weight three times/week (FIG. 11).
To determine if succinate receptor 1 inhibitors could reduce inflammation, succinate receptor 1 inhibitors were administered to mice. In this study (FIG. 11), mice with periodontal disease were used because of the resulting neuroinflammation from the periodontal disease. Topical application of POC7a gel formulation was administered at 1 μg/10 g body weight three times/week.

[4] = target: T1, SUCNR1; assay: LPS-induced neuroinflammation in mice, oral gavage of 7a (FIG. 16); assay type: in vivo; settings: LPS-treated mice
Procedure: FIG. 16. […] A. Experimental design and treatment regime. 12-week-old male mice were randomly divided into 3 groups to receive inflammation induction (LPS) and treatment (7a) at indicated timepoints. PBS was used as the control solution to LPS and 20% DMSO in PBS (vehicle) was used as the control solution to 7a. The RNA samples were collected in TRIZol and extracted after perfusion. TNFα and IL1β mRNA levels were measured by Realtime PCR using specific primers and normalized to β-actin. B. Cerebellum, C. Hippocampus and D. Cortex. (* p<0.05. ** p<0.005, *** p<0.0005, **** p<0.0001 One-way ANOVA with post-hoc Tukey test).
Targeting SUCNR1 with topical 7a application reduced periodontitis as well as the associated neuroinflammation in mice. […] Thus, mice were pretreated 7a or vehicle through oral gavage 30 minutes before giving LPS intraperitoneally to induce neuroinflammation. The administration of 7a at 8 hours and 16 hours was repeated after the first dose. The mouse blood samples were collected through cardiac puncture at 24 hours (FIG. 16A). Immediately afterward, PBS was used to perfuse the mice to minimize the impact of blood cells to the gene expression of the brain tissues. The brain tissue samples were collected and the cerebellum, hippocampus, and cortex were micro-dissected and processed for RNA extraction and gene expression analysis.
The 7a solution was prepared as follows. 100 mM 7a stock solution was prepared using DMSO. Then the 7a stock solution was further diluted with PBS to become 20 mM 7a working solution and used for oral gavage to mice. DMSO in PBS (at 20% v/v) was used as vehicle. Based on the animals' body weight, 25 gram mice will receive 100 μL gavage volume) 7a working solution or vehicle. The treatment dose of 7a is 80 μmol/kg.

[5] = mice with periodontitis, topical gel
[6] = 7a oral gavage 80 μmol/kg, 3 doses, mRNA at 24 hours

| Compound | dysbiosis in the oral microbiota (alpha and beta diversity) [1] | serum IL-1β levels [1] | expression of virulence factors (Hemin receptor, Hemolysin, Hemolysin-related protein, Lys R Family transcriptional regulator) ([2]; 100 uM of succinate, RT-PCR) | F. nucleatum growth (optical density) ([2]; media supplemented with succinate) | IL1β levels in cerebellum tissues [3, 5] | IL1β levels in hippocampal tissues [3, 5] | systemic IL1β levels in the serum [3, 5] | local IL1β levels in the gingiva ([3]; mice with periodontitis, topical gel, mRNA around the ligature site) | periodontitis (μCT, distance between CEJ to alveolar bone crest) ([3]; mice, ligature + F. nucleatum, oral topical gel formulation every other day) | IL1β expression in the cerebellum [4, 6] | IL1β expression in the hippocampus [4, 6] | TNFα expression in the cerebellum [4, 6] | TNFα expression in the cortex [4, 6] | TNFα expression in the hippocampus [4, 6] | neuroinflammation ([4]; oral gavage) |
| --- | --- | --- | --- | --- | --- | --- | --- | --- | --- | --- | --- | --- | --- | --- | --- |
| O=C(O)CCC(=O)O [succinate] | increased | increased | elevated | elevated |  |  |  |  |  |  |  |  |  |  |  |
| CNC(=O)Cc1ccc(-c2ccc3cccnc3n2)cc1 [7a] |  |  |  |  | significant reduction | significant reduction | reduced | reduced | inhibited periodontitis | less induction | less induction | less induction | reduced | less induction | reduced neuroinflammation |
